Patent publication US8962844B2, “1,3,4-oxadiazole and 1,3,4-thiadiazole β-lactamase inhibitors” (priority 2012, dated 2015)
Counter-ions that a name gives are not always drawn.

Experiments:
[1] = system: bacterial strains that express the class D cephalosporinase OXA-15; test: Standard BLI potentiation MIC / synergy MIC (sMIC) assays run in the presence of a β-lactam, OXA-15 expressing strains; assay type: cell-based, E. coli; details: BLI in combination with a β-lactam; comparison with Avibactam (comparator compound CCC)
Description: (§1) Unless otherwise indicated, the activity of the BLI compounds can be described by the MIC value obtained from a Synergy MIC assay or a BLI potentiation assay (e.g as described herein), both of which are run in the presence of a β-lactam.
(§2) A set of β-lactamase expressing isogenic E. coli strains was constructed by cloning a β-lactamase gene into a customized derivative of pBR322 (GenBank Accession Number J01749) and transforming the engineered plasmids into E. coli. The NdeI restriction site within the plasmid backbone of pBR322 was removed to generate pBR322 ΔNdeI. The pBR322 ΔNdeI vector itself, minus the blaTEM-1 gene, was amplified using two primers: (1) pBR-Pbla 5′-cgcatatgactettectttttcaatattattg-3, SEQ ID 1, a primer with an engineered NdeI restriction site at the 3′ end of the blaTEM-1 promoter and (2) pBR-vec-1 5′-[…]-3′, SEQ ID 2, a primer with an engineered BamHI restriction site at the 3′ end of the blaTEM-1 open reading frame. The chloramphenicol resistance gene, cat, was generated by PCR amplification from pKD3 (GenBank Accession Number AY048742) using primers with an engineered NdeI restriction site at the 5′ end (Pbla-cat 5′-[…]-3′, SEQ ID 3) and an engineered BamHI restriction site at the 3′ end (Vec-1-cat 5′-[…]-3′, SEQ ID 4) of the resistance gene. The two PCR products, pBR322 ΔNdeI and cat were ligated together generating pBR-CBST (pBR322 ΔNdeI ΔTEM-1::cat Seq. ID 5) which retains both the pBR322 tetracycline resistance cassette, tetA, and the plasmid origin of replication but the blaTEM-1 gene was replaced by the cat gene.
(§3) Using this engineering strategy a number of plasmids producing β-lactamase genes from different classes (see below) were generated using synthetic genes with an engineered NdeI restriction site at the 5′ end and BamHI restriction site at the 3′ end of each gene (GenScript). Both the synthetic β-lactamase genes and cat gene were ligated into the NdeI/BamHI sites of the pBR322 ΔNdeI PCR product and transformed into electrocompetent E. coli ElectroMax DH10B (Invitrogen/Life Technologies). E. coli DH10B harboring the recombinant plasmids were selected on LB agar (supplemented with 25 μg/mL tetracycline) and single isolated colonies were then inoculated into 5 mL LB media (supplemented with 25 μg/mL tetracycline), and incubated at 37° C. with aeration (250 rpm) for 18 hrs. The cultures were frozen back at −80° C. in 20% glycerol. The DNA sequence of the cloned β-lactamase genes was confirmed. The β-lactamase gene expression in the recombinant E. coli strains was driven by the blaTEM-1 promoter in the pBR-CBST plasmid and was characterized by MIC profiling of the E. coli recombinant strains against comparator β-lactam/BLI combinations in broth microdilution assay.
(§4) The experimental protocol was performed according to Clinical and Laboratory Standards Institute (CLSI) guidelines with modifications as described below (CLSI guidelines can be derived from the CLSI document M07-A9 published in January 2012: “Methods for Dilution Antimicrobial Susceptibility Tests for Bacteria That Grow Aerobically; Approved Standard-Ninth Edition”).
(§5) To prepare for MIC testing, frozen glycerol stocks of clinical isolates (Klebsiella pneumoniae, Eschericia coli, Enterobacter spp, Citrobacter spp, or Pseudomonas aeruginosa) were used to streak for isolated colonies on rich, non-selective, tryptic soy agar containing 5% sheep's blood (TSAB). Frozen glycerol stocks of laboratory engineered, isogenic E. coli strains, which contain cloned β-lactamase expressing plasmids were used to streak for isolated colonies on rich, selective LB agar supplemented with 25 μg/mL tetracycline to maintain the plasmid. All strains were incubated at 37° C. for 18-24 hrs.
(§6) On the day of testing, primary cultures were started by scraping off 5-10 colonies from the TSAB plates containing clinical strains or the tetracycline supplemented LB plates containing engineered strains. […]

[2] = system: bacterial strains that express KPC β-lactamases; test: Standard BLI potentiation MIC / synergy MIC (sMIC) assays run in the presence of a β-lactam, KPC expressing strains; assay type: cell-based; details: more active for at least one KPC strain and/or better spectrum of activity than Avibactam; BLI in combination with a β-lactam
Description: as §1, §2, §3, §4, §5, §6

| SMILES | activity against bacterial strains that express the class D cephalosporinase OXA-15, compared with Avibactam [1] | activity and/or spectrum of activity against bacterial strains that express KPC β-lactamases, compared with Avibactam [2] |
| --- | --- | --- |
| N[C@H]1C[C@H](CCc2nnc([C@@H]3CC[C@@H]4CN3C(=O)N4OS(=O)(=O)O)o2)C1 [Compound 753, (2S,5R)-2-(5-(2-((1r,3R)-3-aminocyclobutyl)ethyl)-1,3,4-oxadiazol-2-yl)-7-oxo-1,6-diazabicyclo[3.2.1]octan-6-yl hydrogen sulfate] | more active than Avibactam | more active than Avibactam |
| N[C@@H]1CC[C@H](c2nnc([C@@H]3CC[C@@H]4CN3C(=O)N4OS(=O)(=O)O)o2)C1 [Compound 729, (2S,5R)-2-(5-((1S,3R)-3-aminocyclopentyl)-1,3,4-oxadiazol-2-yl)-7-oxo-1,6-diazabicyclo[3.2.1]octan-6-yl hydrogen sulfate] | more active than Avibactam | more active than Avibactam |
| N[C@H]1C[C@@H](CCc2nnc([C@@H]3CC[C@@H]4CN3C(=O)N4OS(=O)(=O)O)o2)C1 [Compound 754, (2S,5R)-2-(5-(2-((1s,3S)-3-aminocyclobutyl)ethyl)-1,3,4-oxadiazol-2-yl)-7-oxo-1,6-diazabicyclo[3.2.1]octan-6-yl hydrogen sulfate] | more active than Avibactam | more active than Avibactam |
| O=C1N2C[C@@H](CC[C@H]2c2nnc(CCNC3CNC3)o2)N1OS(=O)(=O)O [Compound 745, (2S,5R)-2-(5-(2-(azetidin-3-ylamino)ethyl)-1,3,4-oxadiazol-2-yl)-7-oxo-1,6-diazabicyclo[3.2.1]octan-6-yl hydrogen sulfate] | more active than Avibactam | more active than Avibactam |
| O=C1N2C[C@@H](CC[C@H]2c2nnc([C@H]3CNCCN3)o2)N1OS(=O)(=O)O [Compound 779, (2S,5R)-7-oxo-2-(5-((R)-piperazin-2-yl)-1,3,4-oxadiazol-2-yl)-1,6-diazabicyclo[3.2.1]octan-6-yl hydrogen sulfate] | more active than Avibactam | more active than Avibactam |
| O=C1N2C[C@@H](CC[C@H]2c2nnc(CCN3CCNCC3)o2)N1OS(=O)(=O)O [Compound 776, (2S,5R)-7-oxo-2-(5-(2-(piperazin-1-yl)ethyl)-1,3,4-oxadiazol-2-yl)-1,6-diazabicyclo[3.2.1]octan-6-yl hydrogen sulfate] | more active than Avibactam | more active than Avibactam |
| O=C1N2C[C@@H](CC[C@H]2c2nnc(CCC3CNC3)o2)N1OS(=O)(=O)O [Compound 742, (2S,5R)-2-(5-(2-(azetidin-3-yl)ethyl)-1,3,4-oxadiazol-2-yl)-7-oxo-1,6-diazabicyclo[3.2.1]octan-6-yl hydrogen sulfate] | more active than Avibactam | more active than Avibactam |
| O=C1N2C[C@@H](CC[C@H]2c2nnc(COC3CNC3)o2)N1OS(=O)(=O)O [Compound 744, (2S,5R)-2-(5-((azetidin-3-yloxy)methyl)-1,3,4-oxadiazol-2-yl)-7-oxo-1,6-diazabicyclo[3.2.1]octan-6-yl hydrogen sulfate] | more active than Avibactam | more active than Avibactam |
| N[C@@H]1CN[C@@H](c2nnc([C@@H]3CC[C@@H]4CN3C(=O)N4OS(=O)(=O)O)o2)C1 [Compound 763, (2S,5R)-2-(5-((2R,4S)-4-aminopyrrolidin-2-yl)-1,3,4-oxadiazol-2-yl)-7-oxo-1,6-diazabicyclo[3.2.1]octan-6-yl hydrogen sulfate] | more active than Avibactam | more active than Avibactam |
| CNCCc1nnc([C@@H]2CC[C@@H]3CN2C(=O)N3OS(=O)(=O)O)o1 [Compound 722, (2S,5R)-2-(5-(2-(methylamino)ethyl)-1,3,4-oxadiazol-2-yl)-7-oxo-1,6-diazabicyclo[3.2.1]octan-6-yl hydrogen sulfate] | more active than Avibactam | more active than Avibactam |
| NCCc1nnc([C@@H]2CC[C@@H]3CN2C(=O)N3OS(=O)(=O)O)o1 [Compound 703, (2S,5R)-2-(5-(2-aminoethyl)-1,3,4-oxadiazol-2-yl)-7-oxo-1,6-diazabicyclo[3.2.1]octan-6-yl hydrogen sulfate] | more active than Avibactam | more active than Avibactam |
| O=C1N2C[C@@H](CC[C@H]2c2nnc(CCNC3CCNCC3)o2)N1OS(=O)(=O)O [Compound 770, (2S,5R)-7-oxo-2-(5-(2-(piperidin-4-ylamino)ethyl)-1,3,4-oxadiazol-2-yl)-1,6-diazabicyclo[3.2.1]octan-6-yl hydrogen sulfate] | more active than Avibactam | more active than Avibactam |
| N[C@H]1CN[C@H](c2nnc([C@@H]3CC[C@@H]4CN3C(=O)N4OS(=O)(=O)O)o2)C1 [Compound 762, (2S,5R)-2-(5-((2S,4R)-4-aminopyrrolidin-2-yl)-1,3,4-oxadiazol-2-yl)-7-oxo-1,6-diazabicyclo[3.2.1]octan-6-yl hydrogen sulfate] | more active than Avibactam | more active than Avibactam |
| N[C@H]1C[C@@H](Cc2nnc([C@@H]3CC[C@@H]4CN3C(=O)N4OS(=O)(=O)O)o2)C1 [Compound 728, (2S,5R)-2-(5-(((1s,3R)-3-aminocyclobutyl)methyl)-1,3,4-oxadiazol-2-yl)-7-oxo-1,6-diazabicyclo[3.2.1]octan-6-yl hydrogen sulfate] | more active than Avibactam | more active than Avibactam |
| N[C@H]1CN[C@@H](c2nnc([C@@H]3CC[C@@H]4CN3C(=O)N4OS(=O)(=O)O)o2)C1 [Compound 761, (2S,5R)-2-(5-((2R,4R)-4-aminopyrrolidin-2-yl)-1,3,4-oxadiazol-2-yl)-7-oxo-1,6-diazabicyclo[3.2.1]octan-6-yl hydrogen sulfate] | more active than Avibactam | more active than Avibactam |
| NC1CCN(CCc2nnc([C@@H]3CC[C@@H]4CN3C(=O)N4OS(=O)(=O)O)o2)CC1 [Compound 775, (2S,5R)-2-(5-(2-(4-aminopiperidin-1-yl)ethyl)-1,3,4-oxadiazol-2-yl)-7-oxo-1,6-diazabicyclo[3.2.1]octan-6-yl hydrogen sulfate] |  | more active than Avibactam |
